{
  "source": "patent US20240369576A1",
  "about": "“ASSAYS FOR ALPHA-DYSTROGLYCAN GLYCOSYLATION AND METHODS FOR USING SAME” (ML Bio Solutions Inc., priority 2023, published 2024)",
  "key": {"[1]": {"tested_on": "αDG glycosylation in P448L mutant FKRP mice", "assay": "Multiplexed Western blot of total and glycosylated αDG in muscle of P448L mutant FKRP mice treated with 5% Ribitol", "type": "in vivo, mouse", "conditions": "5% Ribitol treated P448L mice vs untreated P448L mice, heart muscle and TA lysates", "protocol": "Murine Mouse Tissue: Murine muscle tissue samples from healthy, [MUT], and […] mutant mice were stored at -80° C. until analysis. Tissue Processing: Tissue samples were processed using a TissueLyzer IITM (Qiagen®). Approximately 250 milligrams (mg) of tissue was placed in a 2 mL microtube with a steel bead and 1 mL of Radioimmunoprecipitation assay buffer (RIPA) buffer supplemented with protease and phosphatase inhibitors. The microtubes were subjected to three cycles of disruption (2 minutes at 25 Hertz (Hz)) in the TissueLyzer IITM. Lysates were clarified by centrifugation and the supernatant was transferred to fresh tubes and protein concentration in lysate was determined using a BCA assay (Pierce®). […] The membrane was visualized on an Odyssey CLxTM imager (LiCorTM) and intensities of the 700 and 800 nm channels were recorded. […] Signal intensities were normalized to total protein and the ratio of 700 nm normalized signal/800 nm normalized signal was determined. Linear fits were assessed where applicable using the linear regression function of PrismTM. Statistical significance was determined using an unpaired t-test using PrismTM (e.g., using the p-value for the parameters slope and intercept). StainFree gel image is quantitated using ImageLabTM software to analyze the image from the ChemiDocTM Imaging System. […] Linear fits were assessed were applicable using a linear regression function. […]"}, "glycosylated αDG": {"tested_on": "glycosylated αDG", "assay": "Open label Phase 2 study of ribitol in LGMD2I/R9: glycosylated αDG in tibialis anterior biopsies by Western blot", "type": "in vivo, human", "method": "Tissue Lysis and sample preparation: Tissue samples were processed in lysis buffer, supplemented with protease inhibitors. Total protein in lysate was determined by BCA (Thermo Fisher) for RIPA and protein 660 kit (Thermo Fisher) for SDS-Urea and tested at 60 μg for CP Heterozygous samples and 40 μg for Homozygous samples. Differential protein loading is used for different patients to compensate for patient deficits in glycosylated αDG. […] Loading additional protein helps compensate for this deficiency and allows the assay to detect lower-level ranges. This is further stratified by patient genotype: more severe patients require greater protein loading. Western Blotting: For detection of target proteins αDG-Total and αDG-Glycan, membrane was probed simultaneously with primary antibodies AF6868 alpha Dystroglycan (R&D Systems) and IIH6C4 alpha Dystroglycan (Millipore), followed by fluorescent secondary antibodies IR800CW Mouse Anti-Sheep and IR680 Goat Anti-Mouse secondary antibodies (LiCor). The membrane was visualized in Odyssey CLx imager (LiCor) and intensities of the 700 (αDG-Glycan, red bands) and 800 (αDG-Total, green bands) nm channels were recorded. […] Here, amounts of glycosylated and total αDG are determined using standard curves, and an interpolated ratio is computed by dividing the amount of glycosylated αDG to the amount of total αDG. Data Analysis: Integration boxes were drawn using Image Studio software with specific dimensions over molecular weight range for standards, test articles and control samples. Data analysis was done in Excel (Microsoft). […] Healthy positive control (HPC) at 10 μg was deployed to monitor assay performance. […] FIG. 12 schematically illustrates a workflow for the Western Blot method. Briefly, biopsies are collected from a subject at a desired timepoint and homogenized. Gel electrophoresis is performed, followed by membrane transfer and blocking. Sample is incubated with the primary antibody followed by the secondary antibody. Detection and analysis are subsequently performed. […] A broader region of 70-260 kDa was used in prior iterations of the assay, including that described in Example 2 herein. […] Multiple sections of a single healthy donor TA biopsy sample are homogenized and the resulting lysate is pooled together and stored in single use aliquots at −80° C. These aliquots are used to generate a standard curve which is used in every assay. In addition, a quality control of 10 μg lysate is used to assess assay performance by measuring interpolatability to the standard curve. Methods: This study is an open label dose escalation study of patients with LGMD2I/R9. Part 1 of the study involved three dose cohorts (6 g QD, 6 g BID and 12 g BID) treated for 3 months. During Parts 2 (target maximal dose) and 3 (ongoing OLE), all patients received 12 g BID, dose adjusted for lower weight. FIG. 17 schematically illustrates the details of the clinical study. Briefly, the study includes 3 parts: a 90 day dose escalation phase (Part 1), a 90 day maximum dose phase (Part 2), and a 24 month long term extension phase (Part 3). In Part 1, 14 total patients are studied across three cohorts (6 g QD, 6 g BID, and 12 g BID ribitol). After Part 1, all patients transition to the highest dose, 12 g BID ribitol. Dosing adjustments in Part 2 were as follows: for patients with weight >70 kg: 12 g BID; for patients with weight between 50-70 kg: 9 g BID; and for patients with weight between 30-50 kg: 6 g BID."}, "[2]": {"tested_on": "serum creatine kinase (CK)", "assay": "Open label Phase 2 study of ribitol in LGMD2I/R9: serum creatine kinase", "type": "in vivo, human", "text": "(§1) Methods: This study is an open label dose escalation study of patients with LGMD2I/R9. Part 1 of the study involved three dose cohorts (6 g QD, 6 g BID and 12 g BID) treated for 3 months. During Parts 2 (target maximal dose) and 3 (ongoing OLE), all patients received 12 g BID, dose adjusted for lower weight. FIG. 17 schematically illustrates the details of the clinical study. Briefly, the study includes 3 parts: a 90 day dose escalation phase (Part 1), a 90 day maximum dose phase (Part 2), and a 24 month long term extension phase (Part 3). In Part 1, 14 total patients are studied across three cohorts (6 g QD, 6 g BID, and 12 g BID ribitol). After Part 1, all patients transition to the highest dose, 12 g BID ribitol. Dosing adjustments in Part 2 were as follows: for patients with weight >70 kg: 12 g BID; for patients with weight between 50-70 kg: 9 g BID; and for patients with weight between 30-50 kg: 6 g BID. Dosing adjustments in Part 3 were as follows: for patients with weight >50 kg: 12 g BID; and for patients with weight between 30-50 kg: 9 g BID. Key endpoints for the study include NSAD; 10 or 100 meter walk test; FVC; PUL2.0; glycosylated αDG levels; and serum creatine kinase (CK)."}, "patients with LGMD2I/R9 [3]": {"tested_on": "patients with LGMD2I/R9", "assay": "Open label Phase 2 study of ribitol in LGMD2I/R9: ambulatory and clinical measures (NSAD, 10MWT, 100MTT)", "type": "in vivo, human", "conditions": "following 15 months of ribitol treatment, vs natural history decline", "text": "as §1, with “Key inclusion criteria for the study include age between 12-55 years at enrollment; genetically confirmed LGMD2I/R9 diagnosis; body weight of at least 30 kg; and ability to complete a […] walk test in <12 seconds unaided for moderate disease, or unable to complete the 10MWT for severe disease. Key” for “Key”"}, "patients with LGMD2I/R9 [4]": {"tested_on": "patients with LGMD2I/R9", "assay": "Open label Phase 2 study of ribitol in LGMD2I/R9: safety and tolerability", "type": "in vivo, human", "text": "Objectives: The Phase 2 study is intended to explore the safety and tolerability of ribitol. Additionally, the feasibility and usefulness of clinical efficacy and pharmacodynamic (PD) assessments in patients with LGMD2I receiving ascending doses of ribitol will be investigated.\nMethods: This study is an open label dose escalation study of patients with LGMD2I/R9. Part 1 of the study involved three dose cohorts (6 g QD, 6 g BID and 12 g BID) treated for 3 months. During Parts 2 (target maximal dose) and 3 (ongoing OLE), all patients received 12 g BID, dose adjusted for lower weight.\nFIG. 17 schematically illustrates the details of the clinical study. Briefly, the study includes 3 parts: a 90 day dose escalation phase (Part 1), a 90 day maximum dose phase (Part 2), and a 24 month long term extension phase (Part 3). In Part 1, 14 total patients are studied across three cohorts (6 g QD, 6 g BID, and 12 g BID ribitol). After Part 1, all patients transition to the highest dose, 12 g BID ribitol. Dosing adjustments in Part 2 were as follows: for patients with weight >70 kg: 12 g BID; for patients with weight between 50-70 kg: 9 g BID; and for patients with weight between 30-50 kg: 6 g BID. Dosing adjustments in Part 3 were as follows: for patients with weight >50 kg: 12 g BID; and for patients with weight between 30-50 kg: 9 g BID.\nKey inclusion criteria for the study include age between 12-55 years at enrollment; genetically confirmed LGMD2I/R9 diagnosis; body weight of at least 30 kg; and ability to complete a […] walk test in <12 seconds unaided for moderate disease, or unable to complete the 10MWT for severe disease."}, "[5]": {"tested_on": "alpha-DG glycosylation in LGMD2I mouse models", "conditions": "cited from earlier work"}, "[6]": {"conditions": "maximum change over 3-15 months of treatment, FIG. 19"}},
  "note": "Entries after “also recorded” stand apart in the source; their conditions may differ.",
  "data": [
    {"smiles": "OC[C@@H](O)[C@@H](O)[C@@H](O)CO", "note": "[ribitol, (2R,3S,4S)-Pentane-1,2,3,4,5-pentol]", "values": [
      {"measurement": "αDG expression (total αDG signal, ~50-250 kDa)", "setting": "[1]; FIG. 6B", "result": "increased"},
      {"measurement": "ratio of glycosylated αDG to total αDG", "setting": "[1]; FIG. 6C", "result": "increased"},
      {"measurement": "change in glycosylated αDG vs baseline", "setting": "glycosylated αDG; LGMD2I/R9 patients, oral ribitol 6 g QD to 12 g BID, after 90 days, sustained over 15 months", "result": "approximate doubling; also recorded: approximately double"},
      {"measurement": "levels of glycosylated αDG at 3 months", "setting": "glycosylated αDG; Phase 2, 3 months, sustained over 15 months", "result": "increased"},
      {"measurement": "change in glycosylated αDG by genotype", "setting": "glycosylated αDG; both L276I homozygous and other FKRP genotype LGMD2I/R9 patients", "result": "Approximate doubling"},
      {"measurement": "patients with a ≥100% increase (doubling) in glycosylated αDG levels vs pre-treatment", "setting": "glycosylated αDG; [6]", "result": "10 of 14"},
      {"measurement": "patients with increased glycosylated αDG levels vs pre-treatment baseline", "setting": "glycosylated αDG; [6]", "result": "13 of 14"},
      {"measurement": "αDG glycosylation in LGMD2I/R9 muscle biopsies", "setting": "glycosylated αDG; treatment with ribitol, FIGS. 13A-13B", "result": "dramatically increases"},
      {"measurement": "change in serum CK", "setting": "[2]; after 3 months of treatment, FIG. 20", "result": "notable change"},
      {"measurement": "sustained reduction in serum creatine kinase (CK)", "setting": "[2]; over 15 months of ribitol treatment", "result": "> 75", "unit": "%"},
      {"measurement": "10MWT velocity", "setting": "patients with LGMD2I/R9 [3]", "result": "improvements"},
      {"measurement": "100MTT", "setting": "patients with LGMD2I/R9 [3]", "result": "improvements"},
      {"measurement": "NSAD", "setting": "patients with LGMD2I/R9 [3]", "result": "improvements"},
      {"measurement": "10MWT velocity", "setting": "patients with LGMD2I/R9 [3]; listed as Ribitol", "result": "improvement"},
      {"measurement": "100MTT", "setting": "patients with LGMD2I/R9 [3]; listed as Ribitol", "result": "improvement"},
      {"measurement": "NSAD", "setting": "patients with LGMD2I/R9 [3]; listed as Ribitol", "result": "improvement"},
      {"measurement": "adverse events leading to discontinuation or interruption in therapy", "setting": "patients with LGMD2I/R9 [4]; 15 months of treatment", "result": "No adverse event led to a discontinuation or interruption in therapy"},
      {"measurement": "diarrhea, possibly or probably treatment-related", "setting": "patients with LGMD2I/R9 [4]; 75% grade 1, 25% grade 2", "result": 6, "unit": "incidents"},
      {"measurement": "treatment-related serious adverse events, dose limiting toxicities or discontinuations", "setting": "patients with LGMD2I/R9 [4]; across a range of ribitol dose levels", "result": "no observed treatment-related serious adverse events, dose limiting toxicities or discontinuations"},
      {"measurement": "nausea, possibly or probably treatment-related", "setting": "patients with LGMD2I/R9 [4]; both grade 1", "result": 2, "unit": "incidents"},
      {"measurement": "vomiting, possibly or probably treatment-related", "setting": "patients with LGMD2I/R9 [4]; both grade 1", "result": 2, "unit": "incidents"},
      {"measurement": "adverse events possibly or probably related to ribitol treatment", "setting": "patients with LGMD2I/R9 [4]; during the course of the study", "result": 12},
      {"measurement": "adverse events recorded", "setting": "patients with LGMD2I/R9 [4]; during the course of the study, 14 patients", "result": 136},
      {"measurement": "dehydration, possibly or probably treatment-related", "setting": "patients with LGMD2I/R9 [4]; grade 1", "result": 1, "unit": "incident"},
      {"measurement": "dyspepsia, possibly or probably treatment-related", "setting": "patients with LGMD2I/R9 [4]; grade 1", "result": 1, "unit": "incident"},
      {"measurement": "gastroenteritis, possibly or probably treatment-related", "setting": "patients with LGMD2I/R9 [4]; grade 2", "result": 1, "unit": "incident"},
      {"measurement": "headaches, possibly or probably treatment-related", "setting": "patients with LGMD2I/R9 [4]; grade 2", "result": 1, "unit": "incident"},
      {"measurement": "tolerability", "setting": "patients with LGMD2I/R9 [4]; over 15 months of treatment", "result": "well-tolerated; also recorded: well tolerated"},
      {"measurement": "severe adverse events", "setting": "patients with LGMD2I/R9 [4]; unrelated to the treatment", "result": 3},
      {"measurement": "alpha-DG glycosylation", "setting": "[5]", "result": "increase"}
    ]}
  ]
}
